In paper PMC7094952 (Nature, 2010):
Converted amounts (≈) assume the structure as drawn. “And” between values parts separate entries of the source, which are not always exact repeats. Identical values can stand only once. “Also recorded” adds a separate entry of the source. Like-named read-outs stand apart in the source and are kept apart here.

How the values were obtained:
[1] = system: genotype 1a replicon cells; assay: HCV replicon combination study with NS3 inhibitor in genotype 1a replicon cells; assay type: cell-based, hepatitis C virus; conditions: ITMN-191, overall
genotype 1b replicon = assay: Genotype 1b replicon assay with 40% human serum; assay type: cell-based; conditions: Hepatitis C virus, GETYPE1B, read-out: EC90 (protein-binding-adjusted)
[2] = system: panel of 10 RNA and DNA viruses; assay: organism not typed; assay type: cell-based
Infectious BVDV = assay: BVDV cell protection assay; assay type: cell-based, bovine viral diarrhoea virus; conditions: Bovine viral diarrhea virus isolates and strains, MDBK, in Bos taurus
[3] = system: HCV replicons of genotypes 1a, 1b, 2a, 3a, 4a and 5a; assay: HCV replicons, all genotypes tested; assay type: cell-based; conditions: Hepatitis C virus, read-out: EC50 values, all genotypes tested
genotype 1a replicon = assay: Genotype 1a replicon assay with 40% human serum; assay type: cell-based; conditions: Hepatitis C virus, GETYPE1A, read-out: EC90 (protein-binding-adjusted)
[4] = Preclinical pharmacokinetics; assay type: in vivo, four preclinical species
[5] = Cytotoxicity in Huh-7 cells; assay type: cell-based; conditions: human, Huh-7 cells (liver)
HCV genotype 1a = assay type: in vivo, human; conditions: genotype 1a subjects, 24 h
[6] = Battery of in vitro receptor binding and enzymatic assays; conditions: assessment of promiscuity
BVDV replicon = assay: BVDV replicon; assay type: cell-based, bovine viral diarrhoea virus; conditions: Bovine viral diarrhea virus isolates and strains, Huh-7, in Bos taurus
HCV replicon = HCV replicon inhibitor combination studies; assay type: cell-based, hepatitis C virus; conditions: overall
HCV genotype 1 = assay: Single ascending-dose study in HCV-infected subjects: plasma HCV RNA; assay type: in vivo, human
HCV genotype 1b = assay type: in vivo, human; conditions: for mean reduction in HCV viral load / range of reduction in HCV viral load: genotype 1b subjects, 24 h
[7] = system: HCV genotype 1a replicon (NS5A variants); assay: Transient replication assay, genotype 1a wild type and resistant variants; assay type: cell-based; conditions: Hepatitis C virus, GETYPE1A, most resistant 1a variant, L31V
[8] = Single ascending-dose study in healthy, non-HCV-infected subjects; assay type: in vivo, human
Y93H replicon = Y93H replicon assay; assay type: cell-based; conditions: Hepatitis C virus
HCV NS5B = HCV NS5B (Hepatitis C virus genotype 1b, UniProt Q9WMX2); assay: Biotin/streptavidin pull-down, immunoblot for NS5B; assay type: binding; conditions: genotype 1b replicon cells
HCV NS3 = HCV NS3 (Hepatitis C virus genotype 1b, UniProt Q9WMX2); assay: Biotin/streptavidin pull-down, immunoblot for NS3; assay type: binding; conditions: genotype 1b replicon cells
[9] = system: HCV replicon genotype 1b, Con1; assay: HCV genotype 1b; assay type: cell-based; conditions: Hepatitis C virus, GETYPE1B, read-out: EC50 (subgenomic viral RNA replication)
BVDV NS5A = molecular target: T1, BVDV NS5A (Bovine viral diarrhea virus, UniProt P19711); assay: Biotin/streptavidin pull-down in BVDV replicons; assay type: binding, bovine viral diarrhoea virus; conditions: replicons expressing BVDV RNA
T1 sequence (P19711 2774-3269 limits assumed): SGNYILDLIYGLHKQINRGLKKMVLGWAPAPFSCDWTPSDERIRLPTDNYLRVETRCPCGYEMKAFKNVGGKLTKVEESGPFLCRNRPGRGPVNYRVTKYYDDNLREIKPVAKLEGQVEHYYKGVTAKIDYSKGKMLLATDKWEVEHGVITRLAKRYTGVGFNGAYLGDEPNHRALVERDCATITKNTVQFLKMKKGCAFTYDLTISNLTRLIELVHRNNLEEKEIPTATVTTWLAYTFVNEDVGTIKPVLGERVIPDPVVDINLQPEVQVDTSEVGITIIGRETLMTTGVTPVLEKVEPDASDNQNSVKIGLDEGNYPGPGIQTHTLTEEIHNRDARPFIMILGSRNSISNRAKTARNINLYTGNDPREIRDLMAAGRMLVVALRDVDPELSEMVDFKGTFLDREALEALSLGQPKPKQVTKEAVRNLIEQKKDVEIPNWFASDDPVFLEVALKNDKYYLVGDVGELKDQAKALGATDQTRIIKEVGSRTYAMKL

genotype 1b HCV NS5A = molecular target: T2, genotype 1b HCV NS5A (Hepatitis C virus genotype 1b, UniProt Q9WMX2, S2204I); assay: NS5A inhibitor binding assay; conditions: 1 μM, genotype 1b replicon cells, about 18 h, streptavidin agarose beads, immunoblot
T2 sequence (Q9WMX2 1973-2419 S2204I limits assumed): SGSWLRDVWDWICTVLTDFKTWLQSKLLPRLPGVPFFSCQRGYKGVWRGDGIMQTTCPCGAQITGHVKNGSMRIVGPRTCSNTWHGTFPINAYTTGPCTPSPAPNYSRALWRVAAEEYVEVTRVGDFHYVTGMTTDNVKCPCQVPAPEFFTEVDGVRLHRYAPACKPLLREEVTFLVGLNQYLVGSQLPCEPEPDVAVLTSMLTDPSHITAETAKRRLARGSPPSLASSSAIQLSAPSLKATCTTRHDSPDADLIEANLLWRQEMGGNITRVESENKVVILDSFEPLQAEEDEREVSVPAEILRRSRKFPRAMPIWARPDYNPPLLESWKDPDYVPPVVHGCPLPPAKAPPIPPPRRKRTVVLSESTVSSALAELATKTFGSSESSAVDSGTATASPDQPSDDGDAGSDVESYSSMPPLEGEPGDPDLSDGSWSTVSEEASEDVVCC

[10] = 1 mg single dose, 24 h after administration

COC(=O)N[C@H](C(=O)N1CCC[C@H]1c1ncc(-c2ccc(-c3ccc(-c4cnc([C@@H]5CCCN5C(=O)[C@@H](NC(=O)OC)C(C)C)[nH]4)cc3)cc2)[nH]1)C(C)C [BMS-790052]
Combination effect with NS3 protease inhibitor [1]: Additive/synergistic | EC90 (genotype 1b replicon): 0.04 ng/mL (≈ 0.0541 nM) | EC50 [2]: > 10 µM | EC50 (Infectious BVDV): 12 µM | EC50 [3]: 0.009 to 0.146 nM | Headache (most frequent adverse event), subjects reporting (HCV-infected subjects): four | Safety and tolerability (HCV-infected subjects, single oral doses up to 100 mg): safe and well tolerated | half-life (both, human, plasma, po): 10 to 14 h | EC90 (genotype 1a replicon): 0.28 ng/mL (≈ 0.379 nM) | Oral bioavailability ([4]; four preclinical species): orally bioavailable | Liver distribution ([4]; preclinical species): distributes effectively to the liver | CC50 [5]: 17 ± 1 µM | mean reduction in HCV viral load (HCV genotype 1a; 1 mg): 1.8 log10 | range of reduction in HCV viral load (HCV genotype 1a; 1 mg): 0.2–3.0 log10 | mean reduction in HCV viral load (HCV genotype 1a; 10 mg): 2.9 log10 | range of reduction in HCV viral load (HCV genotype 1a; 10 mg): 2.9–3.0 log10 | mean reduction in HCV viral load (HCV genotype 1a; 100 mg): 3.6 log10 | range of reduction in HCV viral load (HCV genotype 1a; 100 mg): 3.5–3.6 log10 | Effects in battery of in vitro receptor binding and enzymatic assays [6]: no significant effects | EC50 (BVDV replicon): 9 µM | Combination effect with Interferon-α2β (intron A) (HCV replicon): Synergistic | Combination effect with nucleoside NS5B polymerase inhibitor NM-107 (HCV replicon): Additive/synergistic | Combination effect with non-nucleoside NS5B polymerase inhibitor (HCV replicon; palm site II allosteric inhibitor): Additive/synergistic | mean reduction in HCV viral load (HCV genotype 1; [10]): 1.8 log10 | range of reduction in HCV viral load (HCV genotype 1; [10]): 0.2–3.0 log10 | mean maximal HCV RNA decline (HCV genotype 1; 100 mg single dose): 3.6 log10 | range of maximal HCV RNA decline (HCV genotype 1; 100 mg single dose): 3.0–4.1 log10 | HCV RNA measurement at hour 144 (HCV genotype 1b; 100 mg single dose, two individual subjects with genotype 1b): less than 25 IU ml^-1 and 35 IU ml^-1 | mean reduction in HCV viral load (HCV genotype 1b; 10 mg): 3.6 log10 | range of reduction in HCV viral load (HCV genotype 1b; 10 mg): 3.1–4.0 log10 | mean reduction in HCV viral load (HCV genotype 1b; 100 mg): 3.1 log10 | range of reduction in HCV viral load (HCV genotype 1b; 100 mg): 2.7–3.4 log10 | EC50 [7]: ~0.02 µM | Drug concentrations at and beyond 24 h post-dose ([8]; all healthy subjects, versus EC90 for genotypes 1a and 1b): greater than the protein-binding-adjusted EC90 | Exposure versus dose ([8]; healthy subjects, 1 to 200 mg oral solution): dose-proportional exposures | Absorption after oral administration ([8]; healthy subjects, oral solution): readily absorbed | Safety and tolerability ([8]; healthy subjects, single oral doses up to 200 mg): safe and well tolerated

O=C1N[C@H]2[C@H](CS[C@H]2CCCCC(=O)N2CCC[C@H]2C(=O)Nc2ccc(/C=C/c3ccc(NC(=O)[C@@H]4CCCN4C(=O)Cc4ccccc4)cc3)cc2)N1 [Compound 1]
EC50 (Y93H replicon): > 10 µM | NS5B in pull-down (HCV NS5B): not detected | NS3 in pull-down (HCV NS3): not detected | EC50 [9]: 0.033 µM | Binding to BVDV NS5A (pull-down) (BVDV NS5A): failed to bind | Binding to HCV NS5A (pull-down) (genotype 1b HCV NS5A): pulled down efficiently; also recorded: binds

O=C1N[C@H]2[C@H](CS[C@H]2CCCCC(=O)N2CCC[C@@H]2C(=O)Nc2ccc(/C=C/c3ccc(NC(=O)[C@H]4CCCN4C(=O)Cc4ccccc4)cc3)cc2)N1 [Compound 2]
Binding to HCV NS5A (pull-down) (genotype 1b HCV NS5A): does not
